According to ChEMBL document CHEMBL5576132 (J Med Chem, 2024):
One block for each compound: values may come before it. The source made the active and inactive calls. No cut-off for these calls is given here.

Experiments:
[1] = target: Induced myeloid leukemia cell differentiation protein Mcl-1 (Homo sapiens) (UniProt Q07820); conditions: time 3.0 hrs
[2] = Dose normalized AUC in mouse at 25 mg/kg, iv by HPLC-MS/MS analysis; format: ADME, organism-based; conditions: in vivo
[3] = Dose normalized AUC in mouse at 20 mg/kg, iv by HPLC-MS/MS analysis; format: ADME, organism-based; conditions: in vivo
[4] = Clearance in dog assessed as hepatic blood flow at 0.25 mg/kg, iv by HPLC-MS/MS analysis; format: ADME, organism-based, Canis lupus familiaris, Liver; conditions: in vivo
[5] = Clearance in dog assessed as hepatic blood flow at 0.9 mg/kg, iv by HPLC-MS/MS analysis; format: ADME, organism-based, Canis lupus familiaris, Liver; conditions: in vivo
K562 = experiment: Growth inhibition of human K562 cells measured after 72 to 96 hrs by cell-titer glo assay; format: functional; conditions: time 72-96 hrs
NCI-H929 [6] = experiment: Growth inhibition of human NCI-H929 cells measured after 72 to 96 hrs by cell-titer glo assay; format: functional; conditions: time 72-96 hrs
[7] = Dose normalized AUC in mouse at 5 mg/kg, iv by HPLC-MS/MS analysis; format: ADME, organism-based; conditions: in vivo
NCI-H1048 [8] = experiment: Antitumor activity against human NCI-H1048 cells xenografted in BomTac:NMRI-Foxn1nu mouse model assessed as tumor growth inhibition at 60 mg/kg, iv administered daily for 7 days and measured upto 16 days in presence of topotecan relative to control; format: functional; conditions: NCI-H1048, 384 h, time <= 16 day, read-out: TGI
[9] = Toxicity in CB17/Icr-Prkdc(scid)/IcrCrl mouse assessed as reduction in tumor area at 10 mg/kg, iv measured after 21 days by Ki67 staining based analysis; format: organism-based; conditions: in vivo, 504 h, time 21 day
A-427 [10] = experiment: Antitumor activity against human A-427 cells xenografted in CB17/Icr-Prkdc(scid)/IcrCrl mouse model assessed as tumor regression at 10 mg/kg, iv administered daily for 7 days and measured upto 21 days; format: functional, organism-based; conditions: time <= 21.0 day
[11] = AUC in CB17/Icr-Prkdc(scid)/IcrCrl mouse at 60 mg/kg, iv administered daily for 7 days and measured upto 21 days in presence of (R)-7-(7-Chloro-10-(3-(4-chloro-3,5-dimethylphenoxy)propyl)-4-methyl-1-oxo-6-(2,4,6-trimethylpyrimidin-5-yl)-3,4-dihydropyrazino[1,2-a]indol-2(1H)-yl)-4-methoxy-1-methyl-5-((tetrahydro-2H-pyran-4-yl)methoxy)-1H-indole-2-carboxylic Acid; format: ADME, organism-based; conditions: in vivo, time < 21 day
A-427 [12] = experiment: Antitumor activity against human A-427 cells xenografted in CB17/Icr-Prkdc(scid)/IcrCrl mouse model assessed as tumor regression at 60 mg/kg, iv administered daily for 7 days and measured upto 21 days in presence of docetaxel; format: functional, organism-based; conditions: time <= 21.0 day
[13] = Toxicity in CB17/Icr-Prkdc(scid)/IcrCrl mouse assessed as reduction in tumor area at 10 mg/kg, iv measured after 21 days by H and E staining based analysis; format: organism-based; conditions: in vivo, 504 h, time 21 day
NCI-H929 [14] = experiment: Antitumor activity against human NCI-H929 cells xenografted in CB17/Icr-Prkdc(scid)/IcrCrl mouse model assessed as increase in […] activity measured upto 48 hrs by glo reagent based analysis; format: functional, cell-based
[15] = Toxicity in CB17/Icr-Prkdc(scid)/IcrCrl mouse assessed as reduction in tumor area at 60 mg/kg, iv measured after 21 days by Ki67 staining based analysis; format: organism-based; conditions: in vivo, 504 h, time 21 day
[16] = Toxicity in CB17/Icr-Prkdc(scid)/IcrCrl mouse assessed as reduction in tumor area at 60 mg/kg, iv measured after 21 days in presence of docetaxel by H and E staining based analysis; format: organism-based; conditions: in vivo, 504 h, time 21 day
[17] = Clearance in dog assessed as hepatic blood flow at 0.5 mg/kg, iv by HPLC-MS/MS analysis; format: ADME, organism-based, Canis lupus familiaris, Liver; conditions: in vivo
[18] = Plasma protein binding (unknown origin); format: ADME, cell-free; conditions: read-out: PPB (converted)
[19] = Toxicity in CB17/Icr-Prkdc(scid)/IcrCrl mouse assessed as effect on body weight at 60 to 80 mg/kg, iv administered as single dose measured after 15 days; format: organism-based; conditions: in vivo, 360 h, dose 60-80 mg/kg, time 15 day
A-427 [20] = experiment: Antiproliferative activity against human A-427 cells at upto 1000 nM measured after 72 to 96 hrs in presence of docetaxel by cell-titer glo assay; format: functional, cell-based; conditions: time 72-96 hrs
NCI-H1048 [21] = experiment: Antitumor activity against human NCI-H1048 cells xenografted in BomTac:NMRI-Foxn1nu mouse model assessed as tumor growth regression at 60 mg/kg, iv administered daily for 7 days and measured upto 16 days in presence of topotecan; format: functional, organism-based; conditions: time <= 16.0 day
[22] = Toxicity in CB17/Icr-Prkdc(scid)/IcrCrl mouse assessed as reduction in tumor area at 60 mg/kg, iv measured after 21 days presence of docetaxel by Ki67 staining based analysis; format: organism-based; conditions: in vivo, 504 h, time 21 day
Cytochrome P450 3A4 [23] = target: T1, Cytochrome P450 3A4 (Homo sapiens, UniProt P08684); experiment: Time dependent inhibition of CYP3A4 (unknown origin) relative to control; format: ADME
[24] = AUC in CB17/Icr-Prkdc(scid)/IcrCrl mouse at 60 mg/kg, iv administered daily for 7 days and measured upto 21 days in presence of docetaxel; format: ADME, organism-based; conditions: in vivo, time < 21 day
Cytochrome P450 2C8 = target: T2, Cytochrome P450 2C8 (Homo sapiens, UniProt P10632); experiment: Inhibition of CYP2C8 (unknown origin); format: ADME
T2 sequence (P10632 whole entry): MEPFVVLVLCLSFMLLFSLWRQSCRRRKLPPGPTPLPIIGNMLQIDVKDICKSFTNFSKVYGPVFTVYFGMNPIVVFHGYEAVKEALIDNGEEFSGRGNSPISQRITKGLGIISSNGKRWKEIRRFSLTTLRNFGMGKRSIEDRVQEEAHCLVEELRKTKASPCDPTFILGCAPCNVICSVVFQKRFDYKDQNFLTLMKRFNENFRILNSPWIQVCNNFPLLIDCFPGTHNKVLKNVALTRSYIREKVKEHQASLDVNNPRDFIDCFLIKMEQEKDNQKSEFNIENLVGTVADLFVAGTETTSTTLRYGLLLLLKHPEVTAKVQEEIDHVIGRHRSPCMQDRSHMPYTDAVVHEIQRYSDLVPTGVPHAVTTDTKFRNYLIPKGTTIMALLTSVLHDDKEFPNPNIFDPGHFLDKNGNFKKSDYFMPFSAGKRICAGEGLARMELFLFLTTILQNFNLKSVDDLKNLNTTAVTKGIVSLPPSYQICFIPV

Cytochrome P450 3A4 [25] = target: T1, Cytochrome P450 3A4; experiment: Inhibition of CYP3A4 (unknown origin); format: ADME
[26] = Toxicity in CB17/Icr-Prkdc(scid)/IcrCrl mouse assessed as reduction in tumor area at 60 mg/kg, iv measured after 21 days by H and E staining based analysis; format: organism-based; conditions: in vivo, 504 h, time 21 day
NCI-H929 [27] = experiment: Antitumor activity against human NCI-H929 cells xenografted in CB17/Icr-Prkdc(scid)/IcrCrl mouse assessed as disruption of Mcl-1:BIM complex; format: functional, cell-based; conditions: time <= 48.0 hrs, TDE = time-dependent effect

T1 sequence (P08684 whole entry): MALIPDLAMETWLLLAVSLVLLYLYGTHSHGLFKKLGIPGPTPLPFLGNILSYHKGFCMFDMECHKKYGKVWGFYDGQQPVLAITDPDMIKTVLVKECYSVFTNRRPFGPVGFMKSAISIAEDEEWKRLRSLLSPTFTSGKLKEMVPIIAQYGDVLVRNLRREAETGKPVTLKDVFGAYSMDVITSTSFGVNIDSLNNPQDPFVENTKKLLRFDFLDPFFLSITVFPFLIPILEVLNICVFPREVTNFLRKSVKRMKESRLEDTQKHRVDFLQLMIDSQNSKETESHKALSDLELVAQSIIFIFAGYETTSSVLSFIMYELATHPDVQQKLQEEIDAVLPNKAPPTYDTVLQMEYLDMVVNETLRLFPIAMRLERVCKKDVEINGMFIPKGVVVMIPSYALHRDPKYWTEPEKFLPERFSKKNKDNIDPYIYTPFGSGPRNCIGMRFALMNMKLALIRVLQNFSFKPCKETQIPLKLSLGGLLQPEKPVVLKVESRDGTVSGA
Sequence of Induced myeloid leukemia cell differentiation protein Mcl-1 (Homo sapiens) (Q07820 whole entry): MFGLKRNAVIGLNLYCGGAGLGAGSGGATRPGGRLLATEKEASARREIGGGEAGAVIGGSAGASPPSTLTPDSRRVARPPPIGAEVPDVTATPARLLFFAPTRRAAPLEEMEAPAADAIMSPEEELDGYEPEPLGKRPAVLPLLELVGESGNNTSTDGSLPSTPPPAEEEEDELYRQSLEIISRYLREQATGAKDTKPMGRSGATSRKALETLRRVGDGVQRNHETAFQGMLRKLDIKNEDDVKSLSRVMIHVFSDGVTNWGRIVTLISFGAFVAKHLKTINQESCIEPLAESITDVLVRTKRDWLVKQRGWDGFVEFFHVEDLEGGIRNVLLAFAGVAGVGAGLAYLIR

SMILES: Cc1cc(OCCCc2c3n(c4c(-c5c(C)nn(C)c5C)c(Cl)ccc24)[C@H](C)CN(c2cccc4cc(C(=O)O)n(C)c24)C3=O)cc(C)c1Cl
- Activity [1]: inactive

SMILES: COCCOc1cc(N2C[C@@H](C)n3c(c(CCCOc4cc(C)c(Cl)c(C)c4)c4ccc(Cl)c(-c5c(C)nc(C)nc5C)c43)C2=O)c2c(cc(C(=O)O)n2C)c1OC
- QH [4]: 50%
- AUC/dose [2]: 334 nM·h/mg/kg

SMILES: COc1c(O[C@H]2CCOC2)cc(N2C[C@@H](C)n3c(c(CCCOc4cc(C)c(Cl)c(C)c4)c4ccc(Cl)c(-c5c(C)nc(C)nc5C)c43)C2=O)c2c1cc(C(=O)O)n2C
- QH [5]: 38%
- GI50 (K562): 8 µM
- GI50 (NCI-H929 [6]): 22 nM
- AUC/dose [7]: 1860 nM·h/mg/kg

SMILES: COc1c(OCC2CCOCC2)cc(N2C[C@@H](C)n3c(c(CCCOc4cc(C)c(Cl)c(C)c4)c4ccc(Cl)c(-c5c(C)ncnc5C)c43)C2=O)c2c1cc(C(=O)O)n2C
- AUC/dose [3]: 2830 nM·h/mg/kg

SMILES: CC[C@@]1(O)C(=O)OCc2c1cc1n(c2=O)Cc2cc3c(CN(C)C)c(O)ccc3nc2-1 [TOPOTECAN]
- inhibition in vivo at 60 mg/kg (NCI-H1048 [8]): 108%

SMILES: COc1c(OC[C@H]2CCCO2)cc(N2C[C@@H](C)n3c(c(CCCOc4cc(C)c(Cl)c(C)c4)c4ccc(Cl)c(-c5c(C)ncnc5C)c43)C2=O)c2c1cc(C(=O)O)n2C
- AUC/dose [2]: 1480 nM·h/mg/kg

Further lines, with some results ahead:

- AUC/dose [2]: 380 nM·h/mg/kg
SMILES: COCCOc1cc(N2C[C@@H](C)n3c(c(CCCOc4cc(C)c(Cl)c(C)c4)c4ccc(Cl)c(-c5c(C)ncnc5C)c43)C2=O)c2c(cc(C(=O)O)n2C)c1OC

- AUC/dose [3]: 4930 nM·h/mg/kg
SMILES: CCOc1c(OCC2CCOCC2)cc(N2C[C@@H](C)n3c(c(CCCOc4cc(C)c(Cl)c(C)c4)c4ccc(Cl)c(-c5c(C)nc(C)nc5C)c43)C2=O)c2c1cc(C(=O)O)n2C

- AUC/dose [3]: 2510 nM·h/mg/kg
SMILES: COc1c(OC[C@H]2CCCO2)cc(N2C[C@@H](C)n3c(c(CCCOc4cc(C)c(Cl)c(C)c4)c4ccc(Cl)c(-c5c(C)nc(C)nc5C)c43)C2=O)c2c1cc(C(=O)O)n2C

- QH [5]: 29%
- AUC/dose [3]: 2190 nM·h/mg/kg
SMILES: COc1c(OC[C@@H]2CCCO2)cc(N2C[C@@H](C)n3c(c(CCCOc4cc(C)c(Cl)c(C)c4)c4ccc(Cl)c(-c5c(C)nc(C)nc5C)c43)C2=O)c2c1cc(C(=O)O)n2C

- GI50 (K562): > 12 µM
- GI50 (NCI-H929 [6]): 26 nM
- AUC/dose [3]: 1420 nM·h/mg/kg
SMILES: COc1c(O[C@@H]2CCOC2)cc(N2C[C@@H](C)n3c(c(CCCOc4cc(C)c(Cl)c(C)c4)c4ccc(Cl)c(-c5c(C)nc(C)nc5C)c43)C2=O)c2c1cc(C(=O)O)n2C

- AUC/dose [3]: 2460 nM·h/mg/kg
SMILES: CCOc1c(O[C@H]2CCOC2)cc(N2C[C@@H](C)n3c(c(CCCOc4cc(C)c(Cl)c(C)c4)c4ccc(Cl)c(-c5c(C)nc(C)nc5C)c43)C2=O)c2c1cc(C(=O)O)n2C

- AUC at 504 h [11]: 0.0234 µM·h
SMILES: CC(=O)O[C@@]12CO[C@@H]1C[C@H](O)[C@@]1(C)C(=O)[C@H](O)C3=C(C)[C@@H](OC(=O)[C@H](O)[C@@H](NC(=O)OC(C)(C)C)c4ccccc4)C[C@@](O)([C@@H](OC(=O)c4ccccc4)[C@H]21)C3(C)C [DOCETAXEL ANHYDROUS]
- Activity [9]: Non-Toxic
- Activity (A-427 [10]): Active
- Activity (A-427 [12]): Active
- Activity [13]: Non-Toxic

- QH [17]: 17%
- AUC/dose [2]: 9000 nM·h/mg/kg
- fraction unbound [18]: 0.002
- TDI (Cytochrome P450 3A4 [23]): 67%
- AUC at 504 h [24]: 0.382 µM·h
- IC50 (Cytochrome P450 2C8): 2.1 µM
- IC50 (Cytochrome P450 3A4 [25]): 1.8 µM
SMILES: COc1c(OCC2CCOCC2)cc(N2C[C@@H](C)n3c(c(CCCOc4cc(C)c(Cl)c(C)c4)c4ccc(Cl)c(-c5c(C)nc(C)nc5C)c43)C2=O)c2c1cc(C(=O)O)n2C
- Activity (NCI-H929 [14]): Active
- Activity [15]: Non-Toxic
- Activity [16]: Non-Toxic
- Activity [19]: Non-Toxic
- Activity (A-427 [20]): Active
- Activity (NCI-H1048 [21]): Active
- Activity [22]: Non-Toxic
- Activity [26]: Non-Toxic
- Activity (NCI-H929 [27]): Tde
